Where a SMILES comes first, the peptide text is derived from it. [ ]: non-standard residue; d: D form. The star is where a group is joined. Acetyl(2-(piperazin-1-yl)) = O=C(CN1CCNCC1)*; 2Nal = N[C@@H](Cc1ccc2ccccc2c1)C(=O)O; Bta = N[C@@H](Cc1csc2ccccc12)C(=O)O; Pip = O=C(O)[C@@H]1CCCCN1; CH2PO3H2 = O=P(O)(O)C*
The compounds below were run against hPin1 (Protein interacting with NIMA (-kinase)) (Homo sapiens, UniProt Q13526) (assay: protease-coupled PPIase assay, hPin1). Conditions: not given.
Type: biochemical

Sequence of hPin1 (Protein interacting with NIMA (-kinase)) (Q13526 whole entry): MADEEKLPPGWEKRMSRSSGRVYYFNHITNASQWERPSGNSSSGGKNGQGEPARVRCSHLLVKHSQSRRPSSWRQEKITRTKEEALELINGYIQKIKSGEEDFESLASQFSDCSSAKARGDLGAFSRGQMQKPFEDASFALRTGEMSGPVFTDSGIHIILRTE

`NC(=O)[C@H](Cc1ccc2ccccc2c1)NC(=O)[C@@H]1CCCCN1C(=O)[C@H](CSCP(=O)(O)O)NC(=O)C1CSC(=O)N1` (stereo partly shown) [Compound 12, {3-[2-(1-Carbamoyl-2-naphthalen-2-yl-ethylcarbamoyl)-piperidin-1-yl]-3-oxo-2-[(2-oxo-thiazolidine-4-carbonyl)-amino]-propylsulfanylmethyl}-phosphonicacid] and `NC(=O)[C@H](Cc1ccc2ccccc2c1)NC(=O)[C@@H]1CCCCN1C(=O)[C@H](CSCP(=O)(O)O)NC(=O)[C@H](Cc1csc2ccccc12)NC(=O)CN1CCNCC1` [Compound 19, {2-[3-Benzo[b]thiophen-3-yl-2-(2-piperazin-1-yl-acetylamino)-propionylamino]-3-[2-(1-carbamoyl-2-naphthalen-2-yl-ethylcarbamoyl)-piperidin-1-yl]-3-oxo-propylsulfanylmethyl}-phosphonic acid] ({Acetyl(2-(piperazin-1-yl))}-[Bta]C(CH2PO3H2)[Pip][2Nal]-NH2) cannot be ordered by IC50: under 1000 nM for the first, under 1000 nM for the second.

Same assay, conditions: hPin1 6 nM; substrate Ac-Ala-Ala-Ser(PO3H2)-Pro-Arg-pNA, trypsin; 35 mM HEPES pH 7.8, 6° C.; read-out: Specificity of the inhibition with rotamases, Target T-1 (IC50 class)

First: NC(=O)[C@H](Cc1ccc2ccccc2c1)NC(=O)[C@@H]1CCCCN1C(=O)[C@H](CSCP(=O)(O)O)NC(=O)Cc1ccc(Cl)cc1 [Compound 35, {3-[2-(1-Carbamoyl-2-naphthalen-2-yl-ethylcarbamoyl)-piperidin-1-yl]-2-[2-(4-chloro-phenyl)-acetylamino]-3-oxo-propylsulfanylmethyl}-phosphonicacid]
Second: CC(=O)N[C@@H](CSCP(=O)(O)O)C(=O)N1CCCC[C@H]1C(=O)N[C@@H](Cc1ccc2ccccc2c1)C(N)=O [Compound 30, {2-Acetylamino-3-[2-(1-carbamoyl-2-naphthalen-2-yl-ethylcarbamoyl)-piperidin-1-yl]-3-oxo-propylsulfanylmethyl}-phosphonic acid]
The IC50 of the first is lower: under 1000 nM for the first, 1000 to 10000 nM for the second. The first is the more potent here.

`NC(=O)[C@H](Cc1ccc2ccccc2c1)NC(=O)[C@@H]1CCCCN1C(=O)[C@H](CSCP(=O)(O)O)NC(=O)CCN1CCCCC1` [Compound 54, [3-[2-(1-Carbamoyl-2-naphthalen-2-yl-ethylcarbamoyl)-piperidin-1-yl]-3-oxo-2-(3-piperidin-1-yl-propionylamino)-propylsulfanylmethyl]-phosphonicacid] and `COC(=O)N[C@@H](CSCP(=O)(O)O)C(=O)N1CCCC[C@H]1C(=O)N[C@@H](Cc1ccc2ccccc2c1)C(N)=O` [Compound 45, {3-[2-(1-Carbamoyl-2-naphthalen-2-yl-ethylcarbamoyl)-piperidin-1-yl]-2-methoxycarbonylamino-3-oxo-propylsulfanylmethyl}-phosphonic acid] fall in the same range of IC50: 1000 to 10000 nM for the first, 1000 to 10000 nM for the second.

Compared with `Cc1csc(C(Cc2ccc3ccccc3c2)NC(=O)[C@@H]2CCCCN2C(=O)CSCP(=O)(O)O)n1` (stereo partly shown) [Compound 74, (2-{2-[1-(4-Methyl-thiazol-2-yl)-2-naphthalen-2-yl-ethylcarbamoyl]-piperidin-1-yl}-2-oxo-ethylsulfanylmethyl)-phosphonic acid], `O=C(NC(Cc1ccc2ccccc2c1)c1nnco1)[C@@H]1CCCCN1C(=O)CSCP(=O)(O)O` (stereo partly shown) [Compound 75, {2-[2-(2-Naphthalen-2-yl-1-[1,3,4]oxadiazol-2-yl-ethylcarbamoyl)-piperidin-1-yl]-2-oxo-ethylsulfanylmethyl}-phosphonic acid] is lower in IC50: 1000 to 10000 nM for the first, under 1000 nM for the second.

First: COc1cc(CC(=O)N[C@@H](CSCP(=O)(O)O)C(=O)N2CCCC[C@H]2C(=O)N[C@@H](Cc2ccc3ccccc3c2)C(N)=O)cc(OC)c1 [Compound 57, {3-[2-(1-Carbamoyl-2-naphthalen-2-yl-ethylcarbamoyl)-piperidin-1-yl]-2-[2-(3.5-dimethoxy-phenyl)-acetylamino]-3-oxo-propylsulfanylmethyl}-phosphonicacid]
Second: CCCCOC(=O)N[C@@H](CSCP(=O)(O)O)C(=O)N1CCCC[C@H]1C(=O)N[C@@H](Cc1ccc2ccccc2c1)C(N)=O [Compound 44, {2-Butoxycarbonylamino-3-[2-(1-carbamoyl-2-naphthalen-2-yl-ethylcarbamoyl)-piperidin-1-yl]-3-oxo-propylsulfanylmethyl}-phosphonic acid]
The IC50 of the first is lower: under 1000 nM for the first, 1000 to 10000 nM for the second.

`CC(C)(C)NC(=O)[C@H](Cc1ccc2ccccc2c1)NC(=O)[C@@H]1CCCCN1C(=O)CSCP(=O)(O)O` [Compound 63, {2-[2-(1-tert-Butylcarbamoyl-2-naphthalen-2-yl-ethylcarbamoyl)-piperidin-1-yl]-2-oxo-ethylsulfanylmethyl}-phosphonicacid] and `O=C(NC(Cc1ccc2ccccc2c1)c1ccccc1)[C@@H]1CCCCN1C(=O)CSCP(=O)(O)O` (stereo partly shown) [Compound 73, {2-[2-(2-Naphthalen-2-yl-1-phenyl-ethylcarbamoyl)-piperidin-1-yl]-2-oxo-ethylsulfanylmethyl}-phosphonic acid] cannot be ordered by IC50: under 1000 nM for the first, under 1000 nM for the second.

`NC(=O)[C@H](Cc1ccc2ccccc2c1)NC(=O)[C@@H]1CCCCN1C(=O)[C@H](CSCP(=O)(O)O)NC(=O)OCc1ccccc1` [Compound 31, {2-Benzyloxycarbonylamino-3-[2-(1-carbamoyl-2-naphthalen-2-yl-ethylcarbamoyl)-piperidin-1-yl]-3-oxo-propylsulfanylmethyl}-phosphonic acid] showed an IC50 of under 1000 nM.

Source: patent US20080194524A1, “Compounds For the Inhibition of Undesired Cell Proliferation and Use Thereof” (JERINI AG, priority 2003, published 2008)
